Source: ChEMBL document CHEMBL5120819, “Tanzawaic Acids from a Deep-Sea Derived Penicillium Species” (J Nat Prod, 2022)

How the values were obtained:
[1] = system: Escherichia coli; assay: […] activity against Escherichia coli ATCC 35218 assessed as reduction in microbial growth after 12 to 18 hrs by microbroth dilution method; type: functional; conditions: time 12-18 hrs
[2] = system: Candida albicans; assay: Antifungal activity against Candida albicans ATCC 10231 assessed as reduction in microbial growth after 12 to 18 hrs by microbroth dilution method; type: functional; conditions: time 12-18 hrs
[3] = Cytotoxicity against human A549 cells assessed as reduction in cell viability at 13 uM by SRB assay relative to control; type: toxicity, cell-based; conditions: read-out: GI

C[C@H]1C[C@@H](C)[C@@H]2[C@@H](/C=C/C=C/C(=O)O)[C@@H](C)C=C[C@H]2C1
MIC [1]: 10 µg/mL | MIC [2]: 20 µg/mL

COc1ccc([C@@H]2SS[C@@]34C[C@]5(O)[C@H](O)C=C[C@@H](O)[C@@H]5ON3C(=O)[C@@H]2N(C)C4=O)c(O)c1OC
MIC [2]: 30 µg/mL

COc1ccc([C@@H]2SS[C@@]34C[C@]5(O)[C@H](OC(=O)/C=C/C=C/[C@@H]6[C@H]7[C@H](C)C[C@H](C)C[C@@H]7C=C[C@@H]6C)C=C[C@@H](O)[C@@H]5ON3C(=O)[C@@H]2N(C)C4=O)c(O)c1OC
inhibition at 13 µM [3]: 51.7%

COc1ccc([C@@H]2SS[C@@]34C[C@]5(O)[C@H](OC(=O)/C=C/C=C/c6c(C)ccc7c6[C@H](C)C[C@H](C)C7)C=C[C@@H](O)[C@@H]5ON3C(=O)[C@@H]2N(C)C4=O)c(O)c1OC
inhibition at 13 µM [3]: 90.7%
